In ChEMBL document CHEMBL1201862, “PubChem BioAssay data set” (2004):
Active and inactive are the calls of the source.

Assays:
[1] = molecular target: T1, Adenosylmethionine-8-amino-7-oxononanoate aminotransferase (Mycobacterium tuberculosis, UniProt P9WQ81); test: Mycobacterium tuberculosis BioA enzyme inhibitor Measured in Biochemical System Using Plate Reader - 2163-02_Inhibitor_Dose_CherryPick_Activity.; type: functional, Mycobacterium tuberculosis UT205
T1 sequence (P9WQ81 whole entry): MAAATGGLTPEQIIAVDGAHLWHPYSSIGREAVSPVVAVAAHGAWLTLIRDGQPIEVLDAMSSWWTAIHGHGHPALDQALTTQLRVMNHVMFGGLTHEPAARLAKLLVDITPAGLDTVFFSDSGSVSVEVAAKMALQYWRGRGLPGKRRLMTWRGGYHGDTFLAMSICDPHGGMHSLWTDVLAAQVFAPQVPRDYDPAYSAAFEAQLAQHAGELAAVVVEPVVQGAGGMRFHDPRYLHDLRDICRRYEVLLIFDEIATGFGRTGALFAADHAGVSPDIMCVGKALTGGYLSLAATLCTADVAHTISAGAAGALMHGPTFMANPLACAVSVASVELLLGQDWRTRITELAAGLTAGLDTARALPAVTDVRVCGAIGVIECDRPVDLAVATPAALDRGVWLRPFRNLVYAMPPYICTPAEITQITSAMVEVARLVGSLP

cells [2] = test: cells
Major prion protein = Major prion protein (Homo sapiens, UniProt P04156); type: functional, cell-based
Protein skinhead-1 = molecular target: T2, Protein skinhead-1 (Caenorhabditis elegans, UniProt P34707); type: functional
T2 sequence (P34707 whole entry): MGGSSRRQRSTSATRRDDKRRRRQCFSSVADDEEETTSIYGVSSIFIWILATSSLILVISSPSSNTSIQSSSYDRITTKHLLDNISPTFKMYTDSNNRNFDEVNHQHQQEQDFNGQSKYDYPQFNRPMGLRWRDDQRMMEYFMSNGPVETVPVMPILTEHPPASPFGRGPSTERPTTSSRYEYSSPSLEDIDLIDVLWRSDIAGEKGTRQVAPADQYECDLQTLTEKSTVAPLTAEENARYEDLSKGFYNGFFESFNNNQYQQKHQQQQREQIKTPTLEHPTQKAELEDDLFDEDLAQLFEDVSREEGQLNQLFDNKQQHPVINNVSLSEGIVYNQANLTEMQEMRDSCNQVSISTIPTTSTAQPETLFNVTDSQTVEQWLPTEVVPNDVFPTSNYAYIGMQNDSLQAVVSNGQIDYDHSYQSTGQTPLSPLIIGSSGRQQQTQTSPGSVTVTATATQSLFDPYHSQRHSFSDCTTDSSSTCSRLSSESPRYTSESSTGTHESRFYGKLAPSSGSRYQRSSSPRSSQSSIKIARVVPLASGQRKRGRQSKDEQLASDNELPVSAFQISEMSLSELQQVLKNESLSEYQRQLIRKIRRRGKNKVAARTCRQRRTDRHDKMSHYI

[3] = Luminescence Cell-Based Dose Confirmation HTS to Identify Inhibitors of Platelet Dense Granule Release. [Related pubchem assays: 1663 (Primary HTS), 1678 (Summary of Project)]; type: functional
[4] = molecular target: Luciferin 4-monooxygenase (Photinus pyralis, UniProt P08659); test: firefly luciferase enzyme inhibitors, dose response, biochemical, luminescence (AID 1891)
Prothrombin = Prothrombin (Homo sapiens, UniProt P00734); test: Thrombin 1536 HTS Dose Response Confirmation. [Related pubchem assays: 1046 (Thrombin 1536 HTS; hits were confirmed in this assay)]; type: functional
Genome polyprotein = Genome polyprotein (dengue virus type 2, UniProt P29990); test: Dengue-2 NS5 methyltransferase inhibitors, primary screen, biochemical, confirmation dose response (AID 588689); type: functional
[5] = molecular target: T3, Long-chain-fatty-acid--AMP ligase FadD28 (Mycobacterium tuberculosis, UniProt P9WQ59); test: Fluorescence polarization aasay to screen for inhibitors that compete for the binding of FadD28 to a bisubstrate Measured in Biochemical System Using Plate Reader - 2147-01_Inhibitor_Dose_CherryPick_Activity.; type: functional, Mycobacterium tuberculosis H37Rv
T3 sequence (P9WQ59 whole entry): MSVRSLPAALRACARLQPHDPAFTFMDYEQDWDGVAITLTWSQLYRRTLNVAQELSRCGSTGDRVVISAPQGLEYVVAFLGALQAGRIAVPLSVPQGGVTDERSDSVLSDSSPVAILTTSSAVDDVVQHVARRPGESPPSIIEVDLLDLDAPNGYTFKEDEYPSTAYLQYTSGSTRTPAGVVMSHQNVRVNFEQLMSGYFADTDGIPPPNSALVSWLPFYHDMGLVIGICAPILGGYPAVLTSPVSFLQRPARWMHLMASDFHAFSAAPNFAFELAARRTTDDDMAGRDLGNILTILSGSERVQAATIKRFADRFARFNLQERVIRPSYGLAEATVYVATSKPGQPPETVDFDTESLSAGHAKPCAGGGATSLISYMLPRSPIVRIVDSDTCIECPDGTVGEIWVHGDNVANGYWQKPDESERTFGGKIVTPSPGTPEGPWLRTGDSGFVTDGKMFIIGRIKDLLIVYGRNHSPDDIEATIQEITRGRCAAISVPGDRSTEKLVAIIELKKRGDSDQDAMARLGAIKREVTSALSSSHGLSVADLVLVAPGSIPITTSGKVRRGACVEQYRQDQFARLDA

[6] = inhibitors of intracellular T. cruzi replication, confirmation, NIH3T3 host cells, beta-gal luminescence (AID 2044); type: functional, cell-based;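 further: intracellular parasites grown in NIH/3T3 mouse fibroblasts as host cells; luminescent beta-galactosidase reporter signal from transgenic T. cruzi replicating inside host cells; inhibitors lower the luminescence signal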
[7] = cytotoxicity toward NIH3T3 fibroblasts, dose response, counter-screen, cell-based, ATP luminescence, mouse fibroblasts (AID 2010); type: functional;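 further: cells exposed to compound for about 90 hours before reading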
SUMO-activating enzyme = SUMO-activating enzyme (Homo sapiens, UniProt Q9UBT2); test: SUMOylation inhibitor hit validation, confirmation, SUMOylation inhibitor project, biochemical, AlphaScreen (AID 2018); type: functional
[8] = molecular target: T4, Calpain-2 catalytic subunit (Sus scrofa, UniProt P43367); test: pig calpain II inhibitor potency, dose response, biochemical, fluorogenic peptide substrate (AID 1420); type: functional
T4 sequence (P43367 whole entry): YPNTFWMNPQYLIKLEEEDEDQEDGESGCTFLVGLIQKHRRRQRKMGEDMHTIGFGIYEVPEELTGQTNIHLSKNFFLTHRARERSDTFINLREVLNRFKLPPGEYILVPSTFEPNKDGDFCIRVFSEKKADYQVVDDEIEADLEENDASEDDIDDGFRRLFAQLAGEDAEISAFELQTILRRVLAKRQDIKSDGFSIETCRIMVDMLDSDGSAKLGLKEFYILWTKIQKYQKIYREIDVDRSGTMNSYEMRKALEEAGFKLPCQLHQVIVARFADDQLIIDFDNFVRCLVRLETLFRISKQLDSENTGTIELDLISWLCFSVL

BJ [9] = test: cells; type: functional, cell-based; settings: Homo sapiens
[10] = Vero E6 cell cytotoxicity, dose response, cytotoxicity control for non-replicating M. tuberculosis project, secondary assay (AID 492998); type: functional, VeroE6; settings: Vero C1008
BJ [11] = test: cytotoxicity toward BJ-TERT-LT-ST fibroblasts, dose response, cell-based, RAS-independent, luminescence (AID 1935); type: functional; settings: Homo sapiens;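 further: BJ fibroblasts immortalized with TERT plus LT and ST oncogenes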
[12] = HepG2 cell cytotoxicity, dose response, cytotoxicity control for non-replicating M. tuberculosis project (AID 489018); type: functional; settings: Mycobacterium tuberculosis
cells [13] = type: functional, cell-based
[14] = cytotoxicity toward DRD oncogenic fibroblasts, dose response, cell-based, non-viral oncogenic, luminescence (AID 1934); type: functional; settings: Homo sapiens
cells [15] = type: functional, cell-based; remark: listed apart in the source
[16] = THP-1 cell cytotoxicity, dose response, cytotoxicity control for non-replicating M. tuberculosis project (AID 489025); type: functional
cells [17] = type: functional
BJ [18] = test: cytotoxicity toward BJ-TERT fibroblasts, dose response, cell-based, RAS-independent, luminescence (AID 1933); type: functional; settings: Homo sapiens
INS1 = test: beta cell apoptosis inhibitors, cytokine rescue, dose response, luminescence, retest (AID 449756); type: functional, cell-based; settings: Rattus norvegicus;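 further: cell death triggered by IL-1 beta plus TNF-alpha plus IFN-gamma mixture; protective hits raise ATP signal compared with cytokine alone wells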

## Cc1cc(C)n(-c2ccc(C(=O)Nc3ccc4c(c3)OCO4)cc2)n1
[1]
  AC50: 4.31 µM (active)

## Cc1nn(C)cc1CN(C)C(=O)c1cc(-c2ccccc2)nc2ccc(Br)cc12
Cells [2]
  IC50: 75.1 µM (inactive)
Major prion protein
  IC50: 6.12 µM (active)

## O=C(NC(=S)NCCO)c1sc2ccccc2c1Cl
Cells [2]
  IC50: > 138 µM (inactive)
Major prion protein
  IC50: 3.4 µM (active)

## Cn1c(-c2ccc(Br)o2)nc2cc(Br)ccc21
Protein skinhead-1
  IC50: > 100 µM (inactive)

## O=C(Nc1ncc2c(n1)CC(c1ccco1)CC2=O)c1ccco1 (stereo not given)
[1]
  AC50: 6.29 µM (active)
[3]
  EC50: > 112 µM (not active)
[4]
  EC50: > 112 µM (not active)

## CCOC(=O)N1CCN(C(=O)CSCC(=O)Nc2nc(-c3ccc(Cl)s3)cs2)CC1
Prothrombin
  IC50: 1.95 µM (active)

## COc1cc(C(C2C(=O)CC(C)(C)CC2=O)C2C(=O)CC(C)(C)CC2=O)ccc1O
Genome polyprotein
  IC50: 62.3 µM (active)

## Cc1ccc(-n2nc3c(=S)[nH]nc(C)c3c2C)cc1
Major prion protein
  IC50: 0.143 µM (active)

## Cc1ccc(-n2nc3c(S)nnc(C)c3c2C)cc1
Cells [2]
  IC50: > 138 µM (inactive)

## COC(=O)c1cc(NC(=O)CN(c2ccc3c(c2)OCO3)S(C)(=O)=O)ccc1Cl
Protein skinhead-1
  IC50: > 100 µM (inactive)

## COc1ccccc1-n1c(C)c(C(=O)O)c2cc(OC)c3ccccc3c21
[5]
  AC50: 60.9 µM (active)

## COC(=O)c1n[nH]c(NC(=O)C(C)(C)C)n1
Prothrombin
  IC50: 1.43 µM (active)

## O=C(COC(=O)c1cccc(S(=O)(=O)N2CCCCCC2)c1)Nc1ccccc1
[5]
  AC50: > 100 µM (inactive)

## COc1ccc(C(=O)Nc2ccc(Cn3ccnc3)cc2)cc1OC
[1]
  AC50: 7.74 µM (active)

## COC(=O)c1c(NC(=O)CN2CCN(Cc3ccc4c(c3)OCO4)CC2)sc(C)c1C
Protein skinhead-1
  IC50: > 100 µM (inactive)
[6]
  EC50: 1.88 µM (active)
[7]
  EC50: > 60 µM (not active)

## Clc1ccc(Cn2nnc(-c3ccccc3)n2)cc1
Protein skinhead-1
  IC50: 12.6 µM (active)

## O=c1[nH]c(=O)n(Cc2ccccc2)c2c1C(C(F)(F)F)(C(F)(F)F)N=C(c1ccco1)N2
Prothrombin
  IC50: 31.5 µM (active)

## Cc1ccc(/C=C(\CCC(=O)O)c2nc3ccccc3s2)cc1[N+](=O)[O-]
[1]
  AC50: 0.153 µM (active)

## CCc1c(C(=O)NCCc2ccc(OC)c(OC)c2)[nH]c(C)c1C(C)=O
[1]
  AC50: 3.74 µM (active)

## O=C1/C(=C/c2coc3ccc(O)cc3c2=O)SC(=S)N1c1ccccc1
SUMO-activating enzyme
  IC50: 39.4 µM (active)

## Cc1cc(NC(=O)CSc2nc3cc(C(=O)NCCCOC(C)C)ccc3c(=O)n2Cc2ccco2)no1
[8]
  IC50: 16.1 µM (not active)
SUMO-activating enzyme
  IC50: 38.3 µM (active)

## Cc1cc(NC(=O)COc2ccc3ccccc3c2Br)no1
Cells [2]
  IC50: 133 µM (inactive)
Major prion protein
  IC50: 1.39 µM (active)

## Cc1nn(-c2ncc(C(F)(F)F)cc2Cl)c(=O)n1-c1ccccc1
Protein skinhead-1
  IC50: > 100 µM (inactive)

## N#C/C(=C\c1ccccc1)C(=O)NNS(=O)(=O)c1cccc([N+](=O)[O-])c1
Genome polyprotein
  IC50: 51.8 µM (active)

## C=CCOc1ccc(C(c2c(O)nc(SC)nc2O)c2c(O)nc(SC)nc2O)cc1
Genome polyprotein
  IC50: 33.3 µM (active)

## O=[N+]([O-])c1cccnc1N/N=C/c1ccccc1O
BJ [9]
  EC50: 10.9 µM (active)
[10]
  CC50: 3.08 µM (active)
BJ [11]
  EC50: 21.6 µM (active)
[12]
  CC50: 14.4 µM (active)
Cells [13]
  EC50: 6.41 µM (active)
[14]
  EC50: 8.92 µM (active)
Cells [15]
  EC50: > 350 µM (not active)
[16]
  CC50: 0.766 µM (active)
Cells [17]
  IC50: 3.92 µM (active)
BJ [18]
  EC50: 9.77 µM (active)
INS1
  AC50: 0.691 µM (active)

## Cc1ccc(NC(C)C(=O)N/N=C/c2ccc([N+](=O)[O-])s2)cc1 (stereo not given)
[10]
  CC50: 15.8 µM (active)
[16]
  CC50: 25.9 µM (active)
Cells [17]
  IC50: 7.04 µM (active)
[6]
  EC50: 0.494 µM (active)
[7]
  EC50: > 60 µM (not active)

## Cc1ccc(OCC(=O)N/N=C\c2c(C)n(C)c3ccccc23)c([N+](=O)[O-])c1
[5]
  AC50: 68 µM (active)
